Measurements reported in PubChem BioAssay (NCI).
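Dose response: 5 concentrations. Exposure: 48 h. Format: 96-well plates. Endpoint: linear interpolation; highest concentration if not reached. GI50: concentration for 50% inhibition of growth. TGI is the concentration that stops growth completely.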

How the values were obtained:
Assay in all cases: NCI anticancer screen, dose series, 48 h
HOP-62 NSCLC = test system: HOP-62 NSCLC
HOP-92 NSCLC = test system: HOP-92 NSCLC
M14 melanoma = test system: M14 melanoma
OVCAR-4 ovarian = test system: OVCAR-4 ovarian
OVCAR-8 ovarian = test system: OVCAR-8 ovarian
SR leukemia = test system: SR leukemia
TK-10 renal = test system: TK-10 renal
BT-549 breast = test system: BT-549 breast
MDA-MB-435 = test system: MDA-MB-435
MDA-N = test system: MDA-N
MCF7 breast = test system: MCF7 breast

| Compound | TGI (HOP-62 NSCLC) [µM] | TGI (HOP-92 NSCLC) [µM] | TGI (M14 melanoma) [µM] | TGI (OVCAR-4 ovarian) [µM] | TGI (OVCAR-8 ovarian) [µM] | TGI (SR leukemia) [µM] | TGI (TK-10 renal) [µM] | TGI (BT-549 breast) [µM] | TGI (MDA-MB-435) [µM] | TGI (MDA-N) [µM] | GI50 (HOP-92 NSCLC) [µM] | GI50 (MDA-MB-435) [µM] | GI50 (OVCAR-8 ovarian) [µM] | GI50 (SR leukemia) [µM] | GI50 (TK-10 renal) [µM] | TGI (MCF7 breast) [µM] | GI50 (BT-549 breast) [µM] | GI50 (HOP-62 NSCLC) [µM] | GI50 (MCF7 breast) [µM] | GI50 (OVCAR-4 ovarian) [µM] |
| --- | --- | --- | --- | --- | --- | --- | --- | --- | --- | --- | --- | --- | --- | --- | --- | --- | --- | --- | --- | --- |
| O=C1C(=O)c2ccccc2C(O)=C1CN(CCCl)CCCl | > 100 | > 100 | > 100 | > 100 | > 100 | > 100 | > 100 |  |  |  |  |  |  |  |  |  |  |  |  |  |
| NC(CCP(=O)(O)CCC1C=CC=CC1)C(=O)O (stereo not given) |  | > 100 | > 100 | > 100 | > 100 | > 100 | > 100 | > 100 | > 100 | > 100 |  |  |  |  |  |  |  |  |  |  |
| Nc1ccc2c3c(n(CCCCl)c(=O)c2c1)-c1cc2c(cc1C3=O)OCO2 |  | > 100 |  |  | > 100 | > 100 | > 100 |  | > 100 |  | > 100 | > 100 | > 100 | 0.0268 | > 100 |  |  |  |  |  |
| Cc1cccc2[s+]snc12 | > 100 | 44.9 | > 100 | > 100 | > 63.7 | 77.8 | > 100 |  |  |  |  |  |  |  |  |  |  |  |  |  |
| COc1cc(C2=C(C#N)C(N)OC3=C2COc2ccccc23)cc(OC)c1OC (stereo not given) | 20.2 | > 100 | > 100 | 45.7 |  | > 100 | 30.2 | > 100 | > 100 | > 100 |  |  |  |  |  | > 100 |  |  |  |  |
| COC1CC(OC2CCC3(C)C(CCC45CCC(C6=CC(=O)OC6)C(C)(CCC43)C5=O)C2)OC(C)C1O (stereo not given) | 51.3 | > 100 | > 100 |  | > 100 | 71.8 | > 100 | 55.3 | > 100 | > 100 |  |  |  |  |  | > 100 |  |  |  |  |
| O=[N+]([O-])c1ccc(Nc2nc3ccccc3s2)cc1 | > 100 | 60.9 | > 100 | > 100 | > 100 | 34.5 | 88 | 81.4 | > 100 |  |  |  |  |  |  |  |  |  |  |  |
| N=C(N)c1csc([C@@H]2O[C@H](CO)[C@@H](O)[C@H]2O)n1 |  |  | > 100 | > 100 | > 100 | > 100 | > 100 |  |  |  |  |  |  |  |  |  |  |  |  |  |
| CCC(=O)NC(Nc1ccc(O)cc1)(C(F)(F)F)C(F)(F)F | > 100 |  | > 100 |  |  | > 100 | > 100 | > 100 | 65.7 | 35.3 |  |  |  |  |  | > 100 |  |  |  |  |
| c1cn2cc(-c3ccc4ncn(C5CCCCC5)c4c3)nc(-c3ccc4c(c3)ncn4C3CCCCC3)c2n1 | 3.72 | 3.22 |  | 6.3 | 9.49 | > 100 |  | 3.64 | 3.54 |  | 1.54 | 1.77 | 2.55 | 2.87 |  | 4.58 | 1.94 | 2 | 1.8 | 2.17 |
| CC(C)(C)[Si](C)(C)OCC1CCC(n2cnc3c(N)ncnc32)O1 (stereo not given) | > 100 | > 100 | > 100 | > 100 | > 100 |  | > 100 | 87 | 85.2 | > 100 |  |  |  |  |  |  |  |  |  |  |
| NNc1nc2ccccc2s1 |  | > 100 | > 100 | > 100 | > 100 | > 100 | > 100 | > 100 | > 100 | > 100 |  |  |  |  |  | > 100 |  |  |  |  |
| CC12CCC(C(=O)N3CC=CCC3)(OC1=O)C2(C)C (stereo not given) | > 100 | > 100 |  | > 100 | > 100 |  |  |  |  |  |  |  |  |  |  | > 100 |  |  |  |  |
